Several values for one entry are separate records, joined by “and”; a condition that tells them apart may be missing. Identical values can stand only once. Inconclusive results and toxic doses are left out. *1 amine or outer side, *2 acyl side, *3 side chain or, on linkers, in order; H or OH if unused. Where a SMILES comes first, the peptide text is derived from it. Bridges are numbered along the chain shown (N, C = ends). Roman numbers before positions name the chains, in order. [ ]: non-standard residue; d: D form. Actinocin(9to1) = Cc1c2oc3c(C)ccc(C(=O)[*:1])c3nc-2c(C(=O)[*:2])c(N)c1=O; aThr = C[C@H](O)[C@H](N)C(=O)O; NMeV = CN[C@H](C(=O)O)C(C)C; Sar = CNCC(=O)O

For this assay, the system named is BDF1 mice, L1210 Methyl-GAG-resistant leukemia, survival T/C. Kind of assay: NCI In Vivo Anticancer Drug Screen. Data for tumor model L1210 Leukemia resistant to Methyl-GAG; NSC 32946 (subcutaneous) in B6D2F1 (BDF1) mice. The note with it: endpoint: mean survival time, higher = longer survival. Here is the method: The antitumor activity of compounds was measured in mice bearing transplantable tumors. Survival or tumor size were measured and the results are expressed as the measurement made in the treated group (T) divided by the measurement made in the vehicle treated control group (C). The tumor model used in this assay is L1210 Leukemia resistant to Methyl-GAG; NSC 32946 (subcutaneous) in B6D2F1 (BDF1) mice

The mark [1] stands for this setting: dose: 25.0 mg/kg/injection, schedule: Q01DX Z (ip), vehicle: carboxymethylcellulose (CMC).
The mark [2] stands for this setting: dose: 50.0 mg/kg/injection, schedule: Q01DX Z (ip), vehicle: carboxymethylcellulose (CMC).
Setting [3] is: dose: 100.0 mg/kg/injection, schedule: Q01DX Z (ip), vehicle: carboxymethylcellulose (CMC).
[4] abbreviates: dose: 200.0 mg/kg/injection, schedule: Q01DX Z (ip), vehicle: carboxymethylcellulose (CMC).
Where [5] appears, read: dose: 12.5 mg/kg/injection, schedule: Q01DX Z (ip), vehicle: carboxymethylcellulose (CMC).
Where [6] appears, read: dose: 1.25 mg/kg/injection, schedule: Q01DX Z (ip), vehicle: carboxymethylcellulose (CMC).
[7] abbreviates: dose: 2.5 mg/kg/injection, schedule: Q01DX Z (ip), vehicle: carboxymethylcellulose (CMC).
Setting [8] is: dose: 16.0 mg/kg/injection, schedule: Q01DX Z (sc), vehicle: steriod suspending solution.
[9] abbreviates: dose: 32.0 mg/kg/injection, schedule: Q01DX Z (sc), vehicle: steriod suspending solution.
Where [10] appears, read: dose: 15.0 mg/kg/injection, schedule: Q01DX Z (ip), vehicle: carboxymethylcellulose (CMC).
The mark [11] stands for this setting: dose: 30.0 mg/kg/injection, schedule: Q01DX Z (ip), vehicle: carboxymethylcellulose (CMC).
Where [12] appears, read: dose: 60.0 mg/kg/injection, schedule: Q01DX Z (ip), vehicle: carboxymethylcellulose (CMC).

For the compound `O=C1C(NC(=O)C2CCCCC2)=C(N2CC2)C(=O)C(NC(=O)C2CCCCC2)=C1N1CC1`, the T/C under setting [1] is 100 % of control; the T/C under setting [2] was 96 % of control; the T/C under setting [3] was 114 % of control; the T/C under setting [4] is 108 % of control and 118 % of control; the T/C (dose: 400.0 mg/kg/injection, schedule: Q01DX Z (ip), vehicle: carboxymethylcellulose (CMC)) was 120 % of control; the T/C (dose: 800.0 mg/kg/injection, schedule: Q01DX Z (ip), vehicle: carboxymethylcellulose (CMC)) is 104 % of control.
`N#CCSc1ncnc2nc[nH]c12`: the T/C under setting [5] was 101 % of control, the T/C under setting [1] is 110 % of control and the T/C under setting [2] was 123 % of control.
Consider `Nc1ncnc2c1ccn2C1OC(CO)C(O)C1O` (stereo not drawn), for which the T/C (dose: 0.31 mg/kg/injection, schedule: Q01DX Z (ip), vehicle: carboxymethylcellulose (CMC)) is 89 % of control and 97 % of control; the T/C (dose: 0.63 mg/kg/injection, schedule: Q01DX Z (ip), vehicle: carboxymethylcellulose (CMC)) was 91 % of control and 102 % of control; the T/C under setting [6] was 97 % of control and 112 % of control; the T/C under setting [7] is 94 % of control.
As to `Clc1ncnc2nc[nH]c12`, the T/C by setting is: (dose: 31.25 mg/kg/injection, schedule: Q01DX Z (ip), vehicle: carboxymethylcellulose (CMC)) 100 % of control; (dose: 62.5 mg/kg/injection, schedule: Q01DX Z (ip), vehicle: carboxymethylcellulose (CMC)) 90 % of control; (dose: 125.0 mg/kg/injection, schedule: Q01DX Z (ip), vehicle: carboxymethylcellulose (CMC)) 121 % of control.
Turning to `CC[C@H](c1ccc(O)cc1)[C@@H](CC)c1ccc(O)cc1`, the T/C is 100 % of control (dose: 4.0 mg/kg/injection, schedule: Q01DX Z (sc), vehicle: steriod suspending solution); 100 % of control (dose: 8.0 mg/kg/injection, schedule: Q01DX Z (sc), vehicle: steriod suspending solution); 95 % of control under setting [8]; 105 % of control under setting [9].
Take `Nc1nc2n[nH]nc2c(=O)[nH]1`: the T/C runs as follows: (dose: 25.0 mg/kg/injection, schedule: Q01DX Z (ip), vehicle: other) 159 % of control; (dose: 100.0 mg/kg/injection, schedule: Q01DX Z (ip), vehicle: other) 162 % of control and 168 % of control; (dose: 400.0 mg/kg/injection, schedule: Q01DX Z (ip), vehicle: other) 177 % of control.
As for `CCOC(N)=O`, the T/C (dose: 125.0 mg/kg/injection, schedule: Q01DX Z (ip), vehicle: saline) was 99 % of control; the T/C (dose: 250.0 mg/kg/injection, schedule: Q01DX Z (ip), vehicle: saline) was 89 % of control; the T/C (dose: 500.0 mg/kg/injection, schedule: Q01DX Z (ip), vehicle: saline) was 101 % of control; the T/C (dose: 1000.0 mg/kg/injection, schedule: Q01DX Z (ip), vehicle: saline) is 90 % of control.
For the compound `NC(Cc1ccc(N(CCCl)CCCl)cc1)C(=O)O` (stereo not drawn), the T/C runs as follows: under setting [6], 104 % of control; under setting [7], 106 % of control; (dose: 3.2 mg/kg/injection, schedule: Q01DX Z (ip), vehicle: saline) 94 % of control; (dose: 5.0 mg/kg/injection, schedule: Q01DX Z (ip), vehicle: carboxymethylcellulose (CMC)) 106 % of control; (dose: 6.3 mg/kg/injection, schedule: Q01DX Z (ip), vehicle: saline) 118 % of control; (dose: 10.0 mg/kg/injection, schedule: Q01DX Z (ip), vehicle: carboxymethylcellulose (CMC)) 120 % of control. The T/C reads like this: (dose: 12.5 mg/kg/injection, schedule: Q01DX Z (ip), vehicle: saline) 113 % of control; (dose: 20.0 mg/kg/injection, schedule: Q01DX Z (ip), vehicle: carboxymethylcellulose (CMC)) 98 % of control; (dose: 25.0 mg/kg/injection, schedule: Q01DX Z (ip), vehicle: saline) 94 % of control.
As for `C[C@]12CCC(=O)C=C1CC[C@@H]1[C@@H]2CC[C@@]2(C)[C@H]1CC[C@]2(C)O`, the T/C is 97 % of control under setting [8]; 105 % of control under setting [9]; 89 % of control (dose: 62.5 mg/kg/injection, schedule: Q01DX Z (sc), vehicle: steriod suspending solution); 97 % of control (dose: 63.0 mg/kg/injection, schedule: Q01DX Z (sc), vehicle: steriod suspending solution); 95 % of control and 101 % of control (dose: 125.0 mg/kg/injection, schedule: Q01DX Z (sc), vehicle: steriod suspending solution).
As to `O=NN(CCCl)C(=O)NCCCl`, the T/C is 122 % of control (dose: 1.0 mg/kg/injection, schedule: Q01DX Z (ip), vehicle: saline); 155 % of control (dose: 2.0 mg/kg/injection, schedule: Q01DX Z (ip), vehicle: saline); 202 % of control (dose: 4.0 mg/kg/injection, schedule: Q01DX Z (ip), vehicle: saline); 172 % of control (dose: 8.0 mg/kg/injection, schedule: Q01DX Z (ip), vehicle: saline); 92 % of control (dose: 16.0 mg/kg/injection, schedule: Q01DX Z (ip), vehicle: saline); 92 % of control (dose: 32.0 mg/kg/injection, schedule: Q01DX Z (ip), vehicle: saline).
Take `C[C@H]1C(=O)O[C@@H]2CCN3CC=C(COC(=O)[C@](C)(O)[C@@]1(C)O)[C@H]23`: the T/C was 94 % of control (dose: 1.88 mg/kg/injection, schedule: Q01DX Z (ip), vehicle: carboxymethylcellulose (CMC)); 96 % of control (dose: 3.75 mg/kg/injection, schedule: Q01DX Z (ip), vehicle: carboxymethylcellulose (CMC)); 92 % of control (dose: 7.5 mg/kg/injection, schedule: Q01DX Z (ip), vehicle: carboxymethylcellulose (CMC)); 92 % of control and 99 % of control under setting [10]; 105 % of control under setting [11]; 106 % of control under setting [12]. For the same compound, the T/C (dose: 120.0 mg/kg/injection, schedule: Q01DX Z (ip), vehicle: carboxymethylcellulose (CMC)) is 113 % of control.
In the case of `Cc1cc(N(CCCl)CCCl)ccc1N=Nc1ccccc1C(=O)O`, the T/C reads like this: under setting [10], 96 % of control; under setting [11], 99 % of control; under setting [12], 96 % of control.
Turning to `C[N+](C)(C)c1ncnc2nc[nH]c12`, the T/C is, setting by setting: under setting [5], 101 % of control; under setting [1], 103 % of control; under setting [2], 101 % of control and 112 % of control; under setting [3], 94 % of control and 117 % of control; under setting [4], 102 % of control.
On to `Cc1c2oc3c(C)ccc(C(=O)N[C@@H]4C(=O)N[C@H](C(C)C)C(=O)N5CCC[C@H]5C(=O)N(C)CC(=O)N(C)[C@@H](C(C)C)C(=O)O[C@H]4C)c3nc-2c(C(=O)N[C@@H]2C(=O)N[C@H](C(C)C)C(=O)N3CCC[C@H]3C(=O)N(C)CC(=O)N(C)[C@@H](C(C)C)C(=O)O[C@H]2C)c(N)c1=O` (I: [aThr][dV]P[Sar][NMeV] / II: [aThr][dV]P[Sar][NMeV]; ester I:1-I:C, II:1-II:C; linker I:N-II:N via Actinocin(9to1)), for which the T/C reads like this: (dose: 0.8 micrograms/kg/injection, schedule: Q01DX Z (ip), vehicle: saline) 96 % of control; (dose: 6.4 micrograms/kg/injection, schedule: Q01DX Z (ip), vehicle: saline) 93 % of control; (dose: 25.6 micrograms/kg/injection, schedule: Q01DX Z (ip), vehicle: saline) 96 % of control; (dose: 51.2 micrograms/kg/injection, schedule: Q01DX Z (ip), vehicle: saline) 98 % of control; (dose: 102.0 micrograms/kg/injection, schedule: Q01DX Z (ip), vehicle: saline) 90 % of control.
As for `CN(C)c1ccc(/C=C/c2ccnc3ccccc23)cc1`, the T/C was 102 % of control (dose: 3.1 mg/kg/injection, schedule: Q01DX Z (ip), vehicle: water); 100 % of control (dose: 3.12 mg/kg/injection, schedule: Q01DX Z (ip), vehicle: carboxymethylcellulose (CMC)); 96 % of control (dose: 6.25 mg/kg/injection, schedule: Q01DX Z (ip), vehicle: carboxymethylcellulose (CMC)); 97 % of control (dose: 6.25 mg/kg/injection, schedule: Q01DX Z (ip), vehicle: water); 94 % of control under setting [5]; 97 % of control (dose: 12.5 mg/kg/injection, schedule: Q01DX Z (ip), vehicle: water). Further, the T/C reads like this: under setting [1], 100 % of control; (dose: 25.0 mg/kg/injection, schedule: Q01DX Z (ip), vehicle: water) 100 % of control; under setting [2], 94 % of control; (dose: 50.0 mg/kg/injection, schedule: Q01DX Z (ip), vehicle: water) 91 % of control; under setting [3], 100 % of control.
